Where a name gives a salt, the structure may show the parent alone. Read-outs that look alike come from different tables or passages of the source.
Key:
pERK in MKN1 cells = assay: cells; type: cell-based; settings: Homo sapiens
[1] = molecular target: recombinant human SOS1 polypeptide (amino acids 560-1049) (Homo sapiens (Human), UniProt Q07889); assay: biochemical; type: binding
Experimental: The ability of a compound of Formula (I) to bind to SOS1 was measured using a HTRF displacement assay. […] After a 1-hour incubation at room temperature, the HTRF signal was measured using Clairostar plate reader (BMG Labtech) according to the manufacturer's instructions. Excitation filter EX-TR was used, and emission 1 was detected at 650-610 nm and emission 2 detected at 620-610 nm. The HTRF ratio was calculated using the formula: [emission 1/emission 2]*10000.
Background signals were calculated from well with a 10 μM inhibitor, known to inhibit 100% at that concentration. The background subtracted signals were converted to % binding relative to DMSO controls. Data were analyzed using XLFIT software (IDBS) using a Morrison equation for competitive binding and Ki's were generated compound of Formula (I).

[2] = read-out: Ki, Inhibition of Labeled Tracer Binding to SOS1
[3] = MKN-1, pERK inhibition, In-Cell Western, MKN1 or H358 cells (Table 24 does not say which), 0.5-1 hour incubation, read-out: IC50
[4] = HTRF displacement, Cy5 labelled tracer, Morrison equation for competitive binding, read-out: Ki, Inhibition of Labeled Tracer Binding to SOS1
[5] = MKN-1, pERK inhibition, In-Cell Western, MKN1 or H358 cells (Table 24 does not say which), 0.5-1 hour incubation

recombinant human SOS1 polypeptide (amino acids 560-1049), sequence (Q07889 560-1049): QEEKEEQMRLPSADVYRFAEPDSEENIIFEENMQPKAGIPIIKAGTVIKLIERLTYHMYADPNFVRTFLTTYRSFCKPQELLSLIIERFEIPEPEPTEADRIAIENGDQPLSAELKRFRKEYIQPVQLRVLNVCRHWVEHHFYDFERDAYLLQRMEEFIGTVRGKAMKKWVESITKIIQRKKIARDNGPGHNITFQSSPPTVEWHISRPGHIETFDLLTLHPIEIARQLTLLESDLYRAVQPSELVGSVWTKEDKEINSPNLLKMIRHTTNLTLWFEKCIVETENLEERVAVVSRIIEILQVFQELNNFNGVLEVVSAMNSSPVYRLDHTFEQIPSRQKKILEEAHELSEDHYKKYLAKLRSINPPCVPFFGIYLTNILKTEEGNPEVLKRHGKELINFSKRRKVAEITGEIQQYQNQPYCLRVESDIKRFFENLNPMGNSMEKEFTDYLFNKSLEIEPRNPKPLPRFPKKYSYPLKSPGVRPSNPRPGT

`Cc1c([C@@H](C)Nc2nnc(C)c3ccc(N4CC(N(C)C)C4)cc23)cccc1C(F)(F)F` [Example 10-46, (R)-7-(3-(dimethylamino)azetidin-1-yl)-4-methyl-N-(1-(2-methyl-3-(trifluoromethyl)phenyl)ethyl)phthalazin-1-amine formate salt] showed an IC50 (pERK in MKN1 cells; MKN-1) of 157 nM and a Ki [1, 2] of 1.13 nM.
Molecule `Cc1nnc(N[C@H](C)c2cccc(C(F)(F)F)c2F)c2cc(N3C[C@H]4CC[C@@H]3CN4C)ncc12` [Example 12-60] has an IC50 (pERK in MKN1 cells; [3]) of 24 nM and a Ki [1, 4] of 0.25 nM.
With `Cc1c([C@@H](C)Nc2nnc(C)c3cnc(N4CC(C)(N(C)C)C4)cc23)cccc1C(F)(F)F` [Example 12-19] the IC50 (pERK in MKN1 cells; [3]) was 59 nM and the Ki [1, 4] was 1 nM.
With `Cc1c([C@@H](C)Nc2nnc(C)c3ccc(N4CCC5(CCCN5C)CC4)cc23)cccc1C(F)(F)F` [Example 10-19, (R)-4-methyl-N-(1-(2-methyl-3-(trifluoromethyl)phenyl)ethyl)-7-(1-methyl-1,8-diazaspiro[4.5]decan-8-yl)phthalazin-1-amine] the IC50 (pERK in MKN1 cells; [3]) was 69 nM and the Ki [1, 4] was 0.28 nM.
Molecule `CNCc1ccccc1-c1ccc([C@@H](C)Nc2nnc(C)c3ccc(C)cc23)s1` [Example 8-1, (R)-4,7-di methyl-N-(1-(5-(2-((methylamino)methyl)phenyl)thiophen-2-yl)ethyl)phthalazin-1-amine] has an IC50 (pERK in MKN1 cells; [3]) of 164 nM and a Ki [1, 4] of 1.38 nM.
In the case of `Cc1c([C@@H](C)Nc2nnc(C)c3ccc(N4CC(O)C4)cc23)cccc1C(F)(F)F` [Example 10-48, (R)-1-(1-methyl-4-((1-(2-methyl-3-(trifluoromethyl)phenyl)ethyl)amino)phthalazin-6-yl)azetidin-3-ol], the IC50 (pERK in MKN1 cells; [3]) is reported as 75 nM and the Ki [1, 4] is reported as 1.35 nM.
For `Cc1nnc(N[C@H](C)c2cccc(F)c2Cl)c2cc(N3CC(C)(N(C)C)C3)ncc12` [Example 12-85], the IC50 (pERK in MKN1 cells; [3]) was 602 nM and the Ki [1, 4] was 27.6 nM.
In the case of `Cc1c([C@@H](C)Nc2nncc3ccc(N4CCC5CCN(C)C5C4)cc23)cccc1C(F)(F)F` (stereo partly drawn) [Example 1-33, N-((R)-1-(2-methyl-3-(trifluoromethyl)phenyl)ethyl)-7-(1-methyloctahydro-6H-pyrrolo[2,3-c]pyridin-6-yl)phthalazin-1-amine], the IC50 (pERK in MKN1 cells; [3]) is reported as 109 nM and the Ki [1, 4] is reported as 0.7 nM.
Work on `Cc1c([C@@H](C)Nc2nncc3ccc(N4CCn5c(cnc5C)C4)cc23)cccc1C(F)(F)F` [Example 1-37, (R)-N-(1-(2-methyl-3-(trifluoromethyl)phenyl)ethyl)-7-(3-methyl-5,6-dihydroimidazo[1,5-a]pyrazin-7(8H)-yl)phthalazin-1-amine] yielded an IC50 (pERK in MKN1 cells; [3]) of 131 nM and a Ki [1, 4] of 0.25 nM.
Molecule `Cc1cc(F)ccc1[C@@H](C)Nc1nnc(C)c2cnc(N3CC(C)(O)C3)cc12` [Example 12-57] has an IC50 (pERK in MKN1 cells; [3]) of 1860 nM and a Ki [1, 4] of 92.2 nM.
`Cc1c([C@@H](C)Nc2nnc(C)c3ccc(N4C5CCC4CN(C)C5)cc23)cccc1C(F)(F)F` [Example 10-28, 4-methyl-N-((R)-1-(2-methyl-3-(trifluoromethyl)phenyl)ethyl)-7-(3-methyl-3,8-diazabicyclo[3.2.1]octan-8-yl)phthalazin-1-amine hydrochloride salt] gave an IC50 (pERK in MKN1 cells; MKN-1) of 161 nM and a Ki [1, 2] of 0.45 nM.
Molecule `Cc1c(C#N)cccc1[C@@H](C)Nc1nnc(C)c2ccc(N3CCNCC3)cc12` [Example 10-55, (R)-2-methyl-3-(1-((4-methyl-7-(piperazin-1-yl)phthalazin-1-yl)amino)ethyl)benzonitrile Formate salt] has an IC50 (pERK in MKN1 cells; MKN-1) of 76 nM and a Ki [1, 2] of 0.76 nM.
`Cc1c([C@@H](C)Nc2nnc(C)c3ccc(N4CCOCC4)cc23)cc(F)cc1C(F)(F)F` [Example 21-8, (R)—N-(1-(5-fluoro-2-methyl-3-(trifluoromethyl)phenyl)ethyl)-4-methyl-7-morpholinophthalazin-1-amine] showed an IC50 (pERK in MKN1 cells; [3]) of 90 nM and a Ki [1, 4] of 3.17 nM.
With `Cc1nnc(N[C@H](C)c2cc(N)cc(C(F)(F)F)n2)c2cc(N3CCOCC3)ccc12` [Example 16-1, (R)—N-(1-(4-amino-6-(trifluoromethyl)pyridin-2-yl)ethyl)-4-methyl-7-morpholinophthalazin-1-amine] the IC50 (pERK in MKN1 cells; [5]) was 245 nM and the Ki [1] was 14.4 nM.
For `Cc1c([C@@H](C)Nc2nnc(C)c3ccc(N4CCNCC(F)C4)cc23)cccc1C(F)(F)F` (stereo partly drawn) [Example 10-22, 7-(6-fluoro-1,4-diazepan-1-yl)-4-methyl-N-((R)-1-(2-methyl-3-(trifluoromethyl)phenyl)ethyl)phthalazin-1-amine], the IC50 (pERK in MKN1 cells; [3]) was 38 nM and the Ki [1, 4] was 0.45 nM.
Molecule `Cc1c(C#N)cc(F)cc1[C@@H](C)Nc1nnc(C)c2cnc(N3C[C@H]4C[C@@H]3CO4)cc12` [Example 12-105] has an IC50 (pERK in MKN1 cells; [3]) of 97 nM and a Ki [1, 4] of 10.9 nM.
`Cc1c([C@@H](C)Nc2nnc(C)c3ccc(N4CCN(C)C5(CC5)C4)cc23)cccc1C(F)(F)F` [Example 10-33, (R)-4-methyl-N-(1-(2-methyl-3-(trifluoromethyl)phenyl)ethyl)-7-(4-methyl-4,7-diazaspiro[2.5]octan-7-yl)phthalazin-1-amine] was tested, and the IC50 (pERK in MKN1 cells; [3]) was 275 nM and the Ki [1, 4] was 0.69 nM.
`Cc1c([C@@H](C)Nc2nnc(C)c3ccc(N4CC5CCC(C4)N5C)cc23)cccc1C(F)(F)F` [Example 10-29, 4-methyl-N-((R)-1-(2-methyl-3-(trifluoromethyl)phenyl)ethyl)-7-(8-methyl-3,8-diazabicyclo[3.2.1]octan-3-yl)phthalazin-1-amine hydrochloride salt] gave an IC50 (pERK in MKN1 cells; MKN-1) of 70 nM and a Ki [1, 2] of 0.39 nM.
`Cc1c([C@@H](C)Nc2nnc(C)c3ccc(OC4CCNCC4)cc23)cccc1C(F)(F)F` [Example 7-2, (R)-4-methyl-N-(1-(2-methyl-3-(trifluoromethyl)phenyl)ethyl)-7-(piperidin-4-yloxy)phthalazin-1-amine] showed an IC50 (pERK in MKN1 cells; [3]) of 73 nM and a Ki [1, 4] of 0.33 nM.
With `Cc1c(C#N)cccc1[C@@H](C)Nc1nnc(C)c2c(F)cc(N3CC(C)(O)C3)cc12` [Example 21-10, (R)-3-(1-((5-fluoro-7-(3-hydroxy-3-methylazetidin-1-yl)-4-methylphthalazin-1-yl)amino)ethyl)-2-methylbenzonitrile] the IC50 (pERK in MKN1 cells; [3]) was 58 nM and the Ki [1, 4] was 5.73 nM.
`Cc1c(C#N)cccc1[C@@H](C)Nc1nnc(C)c2cc(C(F)(F)F)c(N3CC(C)(N(C)C)C3)cc12` [Example 19-1, (R)-3-(1-((7-(3-(dimethylamino)-3-methylazetidin-1-yl)-4-methyl-6-(trifluoromethyl)phthalazin-1-yl)amino)ethyl)-2-methylbenzonitrile] showed an IC50 (pERK in MKN1 cells; [3]) of 156 nM and a Ki [1, 4] of 6.16 nM.
`Cc1cc(C#N)cc([C@@H](C)Nc2nnc(C)c3ccc(N4CCOCC4)cc23)c1` [Example 21-4, (R)-3-methyl-5-(1-((4-methyl-7-morpholinophthalazin-1-yl)amino)ethyl)benzonitrile] gave an IC50 (pERK in MKN1 cells; [5]) of 118 nM and a Ki [1, 2] of 13.7 nM.
In the case of `Cc1c([C@@H](C)Nc2nnc(C)c3cnc(N4C[C@H]5C[C@@H]4CO5)cc23)cccc1C(F)(F)F` [Example 12-9], the IC50 (pERK in MKN1 cells; [3]) is reported as 10 nM and the Ki [1, 4] is reported as 0.47 nM.
With `Cc1nnc(N[C@H](C)c2ccc(F)cc2F)c2cc(N3CCN4CCOC[C@@H]4C3)ncc12` [Example 12-48] the IC50 (pERK in MKN1 cells; [3]) was 114 nM and the Ki [1, 4] was 17 nM.
For `Cc1c([C@@H](C)Nc2nnc(C)c3ccc(N4CCNS(=O)(=O)CC4)cc23)cccc1C(F)(F)F` [Example 10-64, (R)-5-(1-methyl-4-((1-(2-methyl-3-(trifluoromethyl)phenyl)ethyl)amino)phthalazin-6-yl)-1,2,5-thiadiazepane 1,1-dioxide], the IC50 (pERK in MKN1 cells; [3]) was 513 nM and the Ki [1, 4] was 1.7 nM.
`Cc1cc([C@@H](C)Nc2nnc(C)c3ccc(N4CCOCC4)cc23)cc(C(F)(F)F)c1` [Example 10-61, (R)-4-methyl-N-(1-(3-methyl-5-(trifluoromethyl)phenyl)ethyl)-7-morpholinophthalazin-1-amine] showed an IC50 (pERK in MKN1 cells; [3]) of 57 nM and a Ki [1, 4] of 1.61 nM.
Work on `Cc1c([C@@H](C)Nc2nnc(C)c3ccc(N4CCN(C(=O)[C@H]5CCOC5)CC4)cc23)cccc1C(F)(F)F` [Example 11-5, (4-(1-methyl-4-(((R)-1-(2-methyl-3-(trifluoromethyl)phenyl)ethyl)amino)phthalazin-6-yl)piperazin-1-yl)((S)-tetrahydrofuran-3-yl)methanone] yielded an IC50 (pERK in MKN1 cells; [3]) of 12 nM and a Ki [1, 4] of 0.01 nM.
Work on `Cc1c([C@@H](C)Nc2nnc(C)c3ccc(N4CCC(N(C)C)C4)cc23)cccc1C(F)(F)F` (stereo in doubt) [Example 10-27, 7-((R)-3-(dimethylamino)pyrrolidin-1-yl)-4-methyl-N-((R)-1-(2-methyl-3-(trifluoromethyl)phenyl)ethyl)phthalazin-1-amine hydrochloride salt] yielded an IC50 (pERK in MKN1 cells; MKN-1) of 154 nM and a Ki [1, 2] of 0.46 nM.
In the case of `Cc1c([C@@H](C)Nc2nncc3ccc(N4CCn5cncc5C4)cc23)cccc1C(F)(F)F` [Example 1-48, (R)-7-(5,6-dihydroimidazo[1,5-a]pyrazin-7(8H)-yl)-N-(1-(2-methyl-3-(trifluoromethyl)phenyl)ethyl)phthalazin-1-amine], the IC50 (pERK in MKN1 cells; [3]) is reported as 364 nM and the Ki [1, 4] is reported as 0.56 nM.
`Cc1c([C@@H](C)Nc2nnc(C)c3ccc(N4CC[C@@H](N(C)C)C4)cc23)cccc1C(F)(F)F` [Example 10-26, 7-((R)-3-(dimethylamino)pyrrolidin-1-yl)-4-methyl-N-((R)-1-(2-methyl-3-(trifluoromethyl)phenyl)ethyl)phthalazin-1-amine hydrochloride salt] showed an IC50 (pERK in MKN1 cells; MKN-1) of 164 nM and a Ki [1, 2] of 0.47 nM.
In the case of `Cc1c([C@@H](C)Nc2nnc(C)c3ccc(N4CC(C)(O)C4)cc23)cccc1C(F)(F)F` [Example 10-47, (R)-3-methyl-1-(1-methyl-4-((1-(2-methyl-3-(trifluoromethyl)phenyl)ethyl)amino)phthalazin-6-yl)azetidin-3-ol], the IC50 (pERK in MKN1 cells; [3]) is reported as 55 nM and the Ki [1, 4] is reported as 1.19 nM.
Molecule `Cc1nnc(N[C@H](C)c2ccc(F)cc2Cl)c2cc(N3CCOCC3)ccc12` [Example 10-59, (R)-N-(1-(2-chloro-4-fluorophenyl)ethyl)-4-methyl-7-morpholinophthalazin-1-amine Hydrochloride salt] has an IC50 (pERK in MKN1 cells; MKN-1) of 570 nM and a Ki [1, 2] of 30.9 nM.
